Counter-ions that a name gives are not always drawn.
Experiments:
[1] = system: Airway Hyperresponsiveness (AHR) to histamine in sensitized guinea pigs; assay: Guinea pig model of airway hyperreactivity (AHR to histamine after ovalbumin sensitization and challenge); assay type: in vivo
Description: Sensitization and drug treatment: Male Hartley guinea pigs (225-250 g) are sensitized with ovalbumin (0.5 mL of 1% solution, i.p. and s.c.). On day 4, animals received a booster injection (i.p.) of 0.5 mL of 1% ovalbumin. On day 21, animals are orally dosed (2mL/kg) with either vehicle (0.5% methylcellulose/0.2% Tween 80) or test compound 2 hours prior to antigen challenge. Thirty minutes before antigen challenge the animals are also injected with mepyramine (30 mg/kg, i.p.) to prevent anaphylactic collapse. Animals are then exposed for 5 minutes to an aerosol of either saline (control animals) or 1% ovalbumin using a deVilbiss Ultraneb nebulizer.
AHR measurement: Eighteen to twenty four hours after challenge, animals are anesthetized with a combination of ketamine (133 mg/kg) and xylazine (24 mg/kg) given intramuscularly, surgically prepared and then mounted in a whole body plethysmograph for lung function measurement. Animals are connected to Ugo-Basile ventilators delivering a tidal volume of 1 mL/100 g at a rate of 50 breaths/minute via a tracheal cannula. The jugular vein is also cannulated for histamine challenge. A water filled esophageal cannula is placed such that transpulmonary pressure is recordable. Transpulmonary pressure is measured as the difference between the tracheal and esophageal cannulas using a differential pressure transducer. The volume, airflow, and transpulmonary pressure signals are monitored using a pulmonary analysis system (Buxco XA software) and used to calculate pulmonary resistance (cm H2O/mL/s) and dynamic compliance (mL/cm H2O). Airway resistance and dynamic compliance are computed on a breath by breath basis. Histamine is administered intravenously and reactivity to increasing concentrations (0.3-20 μg/kg) assessed. ED50's are estimated from the area under the curve (AUC) values derived from the individual histamine dose-response curves.

[2] = Plasma, lung and BAL drug levels in guinea pigs; assay type: in vivo, guinea pig
Description: Plasma and Lung Drug Levels Plasma and lung compound levels are determined in satellite groups. Three to four guinea pigs from each of the experimental-drug treatment groups are used for the determination of drug levels. At the indicated time point, (either 2- or 24 hours after dosing), animals are euthanized, and 1 mL blood samples are obtained by cardiac puncture and collected into heparin-coated syringes containing 20 μL (per 1 mL of blood) of a 5 mM hydralazine solution. Plasma is separated from the cellular component of the blood by centrifugation, and stored at −20° C. until assayed. Lung samples are dissected free of connective tissues, blotted dry, weighed and stored in 20 mL vials containing 5 mL of a 5 mM hydralazine solution in saline. The frozen plasma samples are then transferred on dry ice to the Pilot PK group for compound levels determination.

[3] = molecular target: T1, recombinant human β tryptase (Homo sapiens, UniProt Q15661); assay: β-Tryptase inhibitory potency, chromogenic enzyme assay (S2366 substrate); assay type: biochemical
T1 construct: host or cells: yeast cells
Description: Tryptase inhibition activity is confirmed using either isolated human lung tryptase or recombinant human β tryptase expressed in yeast cells. Essentially equivalent results are obtained using isolated native enzyme or the expressed enzyme. The assay procedure employs a 96 well microplate (Costar 3590) using L-pyroglutamyl-L-prolyl-L-arginine-para-nitroanilide (S2366: Quadratech) as substrate (essentially as described by McEuen et. al. Biochem Pharm, 1996, 52, pages 331-340). Assays are performed at room temperature using 0.5mM substrate (2×Km) and the microplate is read on a microplate reader (Beckman Biomek Plate reader) at 405 nm wavelength.
Materials and Methods for Tryptase Primary Screen (Chromogenic assay)
• S2366 (Stock solutions of 2.5 mM).
• Purified recombinant beta Tryptase Stocks of 310 μg/mL. Protocol (Single Point Determination) • Add 60 μL of diluted substrate (final concentration of 500 μM in assay buffer) to each well • Add compound in duplicates, final concentration of 20 μM, volume 20 μL • Add enzyme at a final concentration of 50 ng/mL in a volume of 20 μL • Total volume for each well is 100 μL • Agitate briefly to mix and incubate at room temp in the dark for 30 minutes • Read absorbencies at […]

[4] = oral route, sensitized guinea pigs
[5] = 2 hours after dosing, 1 mg/kg, p.o.

T1 sequence (Q15661 31-275): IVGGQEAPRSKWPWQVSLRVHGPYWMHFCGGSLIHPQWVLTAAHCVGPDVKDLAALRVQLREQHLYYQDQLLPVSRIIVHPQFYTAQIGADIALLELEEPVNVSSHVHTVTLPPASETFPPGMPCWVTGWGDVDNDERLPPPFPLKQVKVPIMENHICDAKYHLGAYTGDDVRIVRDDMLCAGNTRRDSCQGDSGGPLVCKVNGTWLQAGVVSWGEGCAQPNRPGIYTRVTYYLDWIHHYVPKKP

compound level in lung [2, 5]: appreciable amount | compound level in plasma [2, 5]: detected at a much lower level | compound level in bronchoalveolar lavage fluid (BAL) ([2]; 2 hours after dosing, 1 mg/kg, p.o., not taking into account dilution factor for BAL): appreciable amount | compound level in lung ([2]; 24 hours after dosing): dose-dependent appreciable amount | compound level in plasma ([2]; 24 hours after dosing): no plasma could be detected | IC50 ([3]; 0.5 mM substrate S2366 (2×Km), room temperature): 76 nM | Ki ([3]; calculated from IC50: Ki=IC50/(1+[Substrate]/Km)): 15 nM
Compound: CCCOc1sc(C(=O)N2CCC(c3cc(CN)ccc3F)CC2)c(C)c1Br [Compound I, [4-(5-aminomethyl-2-fluoro-phenyl)-piperidin-1-yl]-(4-bromo-3-methyl-5-propoxy-thiophen-2-yl)-methanone hydrochloride]
ED50 ([1]; Cavia porcellus, dosed 24 hours prior to antigen challenge, read-out: average ED50, duration of action): 0.4 mg/kg | ED50, protection against antigen-stimulated AHR to histamine, as measured by airway resistance and dynamic lung compliance ([1]; oral dosing 2 hours prior to ovalbumin challenge): 0.1 mg/kg | effect on basal airway resistance [1, 4]: no effect | effect on basal dynamic lung compliance [1, 4]: no effect

Reference: US7482459B2, “[4-(5-aminomethyl-2-fluoro-phenyl)-piperidin-1-yl]-(4-bromo-3-methyl-5-propoxy-thiophen-2-yl)-methanone hydrochloride as an inhibitor of mast cell tryptase” (Aventis Pharmaceuticals Inc., priority 2004, dated 2009)
